Measurements reported in PubChem BioAssay AID1745844 (Carcinogenic Potency Database (CPDB), 2022).
The source made the active and inactive calls. How the calls were made is not given here.

Tested on: rodent lifetime carcinogenesis bioassay, tumor incidence TD50
Assay: chronic cancer bioassays in animals – CPDB, compiled studies (AID 1745844)
[1] = rat, strain Fischer 344, females, in feed, site: any site (literature study), lesion: several types, types named in the paper, dosed 78 weeks, study length 105 weeks
[2] = rat, strain Fischer 344, males, in feed, site: any site (literature study), lesion: several types, types named in the paper, dosed 78 weeks, study length 105 weeks
[3] = rat, strain Fischer 344, males, in feed, site: liver, lesion: hepatocellular adenoma + hepatocellular carcinoma + neoplastic nodule, dosed 78 weeks, study length 105 weeks

`CC(=O)[O-].CC(=O)[O-].[OH-].[OH-].[OH-].[OH-].[Pb+2].[Pb+2].[Pb+2]` was tested, and the carcinogen call (mouse, strain Swiss, females, in feed, site: kidney, lesion: adenoma, dosed 104 weeks, study length 104 weeks) was “positive”, the TD50 (mouse, strain Swiss, females, in feed, site: kidney, lesion: carcinoma, dosed 104 weeks, study length 104 weeks) was 14800 mg/kg/day and the TD50 (mouse, strain Swiss, males, in feed, site: kidney, lesion: adenoma, dosed 86 weeks, study length 104 weeks) was 986 mg/kg/day. For the same molecule, the TD50 (mouse, strain Swiss, males, in feed, site: kidney, lesion: carcinoma, dosed 86 weeks, study length 104 weeks) was 472 mg/kg/day, the TD50 (rat, strain Sprague-Dawley, males, in feed, site: kidney, lesion: several types, types named in the paper, dosed 79 weeks, study length 79 weeks) was 266 mg/kg/day and the carcinogen call (rat, strain Sprague-Dawley, males, in feed, site: liver, lesion: one or several types, types not named, dosed 79 weeks, study length 79 weeks) was “negative (inactive)”. For the same molecule, the TD50 (rat, strain Wistar, females, in feed, site: kidney, lesion: several types, types named in the paper, dosed 104 weeks, study length 104 weeks) was 339 mg/kg/day, the TD50 (rat, strain Wistar, females, in feed, site: kidney, lesion: several types, types named in the paper, dosed 126 weeks, study length 126 weeks) was 107 mg/kg/day and the TD50 (rat, strain Wistar, males, in feed, site: kidney, lesion: several types, types named in the paper, dosed 104 weeks, study length 104 weeks) was 443 mg/kg/day. The TD50 (rat, strain Wistar, males, in feed, site: kidney, lesion: several types, types named in the paper, dosed 126 weeks, study length 126 weeks) was 107 mg/kg/day.
`CC1CN(/N=C/c2ccc([N+](=O)[O-])o2)C(=O)N1` (stereo not drawn) was tested, and the TD50 (rat, strain Sprague-Dawley, females, in feed, site: any site (literature study), lesion: several types, types named in the paper, dosed 46 weeks, study length 66 weeks) was 5.59 mg/kg/day and the TD50 (rat, strain Sprague-Dawley, females, in feed, site: mammary gland, lesion: adenocarcinoma, dosed 46 weeks, study length 66 weeks) was 5.34 mg/kg/day.
In the case of `Nc1cc([N+](=O)[O-])ccc1C(=O)O`, the carcinogen call (mouse, strain B6C3F1, females, in feed, site: any site (literature study), lesion: several types, types named in the paper, dosed 78 weeks, study length 93 weeks) is reported as “negative (inactive)”, the TD50 (mouse, strain B6C3F1, females, in feed, site: lung, lesion: alveolar/bronchiolar adenoma + alveolar/bronchiolar carcinoma, dosed 78 weeks, study length 93 weeks) is reported as 2560 mg/kg/day and the TD50 (mouse, strain B6C3F1, males, in feed, site: all sites, lesion: hemangioma + hemangiosarcoma, dosed 78 weeks, study length 93 weeks) is reported as 12600 mg/kg/day (inactive). The TD50 (mouse, strain B6C3F1, males, in feed, site: any site (literature study), lesion: several types, types named in the paper, dosed 78 weeks, study length 93 weeks) was 1660 mg/kg/day, the carcinogen call [1] was “negative (inactive)” and the TD50 (rat, strain Fischer 344, females, in feed, site: liver, lesion: hepatocellular adenoma + hepatocellular carcinoma + neoplastic nodule, dosed 78 weeks, study length 105 weeks) was 11800 mg/kg/day. For the same molecule, the carcinogen call [2] was “negative (inactive)” and the TD50 [3] was 3710 mg/kg/day.
`CC(=O)N[C@@H](CS)C(=O)O` was tested, and the carcinogen call (rat, strain Fischer 344, males, in feed, site: liver, lesion: several types, types named in the paper, dosed 98 weeks, study length 98 weeks) was “negative (inactive)”.
For `CC(=O)CN(N=O)C(N)=O`, the TD50 (hamster, strain Syrian Golden, females, by gavage, site: spleen, lesion: all vascular tumors, dosed 40 weeks, study length 55 weeks) was 0.121 mg/kg/day, the TD50 (hamster, strain Syrian Golden, males, by gavage, site: spleen, lesion: hemangiosarcoma, dosed 40 weeks, study length 75 weeks) was 0.14 mg/kg/day and the TD50 (rat, strain Fischer 344, females, by gavage, site: kidney, lesion: mesenchymal neoplasm, dosed 30 weeks, study length 104 weeks) was 0.32 mg/kg/day. For the same molecule, the TD50 (rat, strain Fischer 344, females, by gavage, site: liver, lesion: one or several types, types not named, dosed 30 weeks, study length 104 weeks) was 4.04 mg/kg/day and the TD50 (rat, strain Fischer 344, males, by gavage, site: kidney, lesion: mesenchymal neoplasm, dosed 30 weeks, study length 104 weeks) was 0.456 mg/kg/day.
`NNc1ccc(C(=O)O)cc1` showed a TD50 (mouse, strain Swiss albino, females, in drinking water, site: aorta and large arteries, lesion: leiomyoma, dosed 121 weeks, study length 121 weeks) of 2660 mg/kg/day, a TD50 (mouse, strain Swiss albino, females, in drinking water, site: aorta and large arteries, lesion: leiomyosarcoma, dosed 121 weeks, study length 121 weeks) of 1970 mg/kg/day and a TD50 (mouse, strain Swiss albino, females, in drinking water, site: aorta and large arteries, lesion: several types, types named in the paper, dosed 121 weeks, study length 121 weeks) of 1070 mg/kg/day. For the same molecule, the TD50 (mouse, strain Swiss albino, females, in drinking water, site: lung, lesion: adenocarcinoma, dosed 121 weeks, study length 121 weeks) was 11200 mg/kg/day, the TD50 (mouse, strain Swiss albino, females, in drinking water, site: lung, lesion: adenoma, dosed 121 weeks, study length 121 weeks) was 1170 mg/kg/day and the TD50 (mouse, strain Swiss albino, females, in drinking water, site: lung, lesion: several types, types named in the paper, dosed 121 weeks, study length 121 weeks) was 1140 mg/kg/day. For the same molecule, the TD50 (mouse, strain Swiss albino, males, in drinking water, site: aorta and large arteries, lesion: leiomyoma, dosed 120 weeks, study length 120 weeks) was 1490 mg/kg/day, the TD50 (mouse, strain Swiss albino, males, in drinking water, site: aorta and large arteries, lesion: leiomyosarcoma, dosed 120 weeks, study length 120 weeks) was 609 mg/kg/day and the TD50 (mouse, strain Swiss albino, males, in drinking water, site: aorta and large arteries, lesion: several types, types named in the paper, dosed 120 weeks, study length 120 weeks) was 380 mg/kg/day. The TD50 (mouse, strain Swiss albino, males, in drinking water, site: lung, lesion: adenoma, dosed 120 weeks, study length 120 weeks) was 597 mg/kg/day, the TD50 (mouse, strain Swiss albino, males, in drinking water, site: lung, lesion: several types, types named in the paper, dosed 120 weeks, study length 120 weeks) was 675 mg/kg/day and the carcinogen call (mouse, strain Swiss, females, by gavage, site: lung, lesion: one or several types, types not named, dosed 40 weeks, study length 55 weeks) was “negative (inactive)”.
For `O=[N+]([O-])c1ccc2nc[nH]c2c1`, the TD50 (mouse, strain B6C3F1, females, in feed, site: any site (literature study), lesion: several types, types named in the paper, dosed 78 weeks, study length 95 weeks) was 429 mg/kg/day, the TD50 (mouse, strain B6C3F1, females, in feed, site: liver, lesion: hepatocellular adenoma + hepatocellular carcinoma + neoplastic nodule, dosed 78 weeks, study length 95 weeks) was 354 mg/kg/day and the TD50 (mouse, strain B6C3F1, females, in feed, site: liver, lesion: hepatocellular adenoma + hepatocellular carcinoma, dosed 78 weeks, study length 95 weeks) was 354 mg/kg/day. For the same molecule, the TD50 (mouse, strain B6C3F1, females, in feed, site: liver, lesion: hepatocellular carcinoma, dosed 78 weeks, study length 95 weeks) was 762 mg/kg/day, the TD50 (mouse, strain B6C3F1, females, in feed, site: pituitary gland, lesion: adenoma, NOS + chromophobe adenoma, dosed 78 weeks, study length 95 weeks) was 335 mg/kg/day and the TD50 (mouse, strain B6C3F1, males, in feed, site: any site (literature study), lesion: several types, types named in the paper, dosed 78 weeks, study length 95 weeks) was 1980 mg/kg/day. For the same molecule, the TD50 (mouse, strain B6C3F1, males, in feed, site: liver, lesion: hepatocellular adenoma + hepatocellular carcinoma + neoplastic nodule, dosed 78 weeks, study length 95 weeks) was 392 mg/kg/day, the TD50 (mouse, strain B6C3F1, males, in feed, site: liver, lesion: hepatocellular adenoma + hepatocellular carcinoma, dosed 78 weeks, study length 95 weeks) was 392 mg/kg/day and the TD50 (mouse, strain B6C3F1, males, in feed, site: liver, lesion: hepatocellular carcinoma, dosed 78 weeks, study length 95 weeks) was 423 mg/kg/day. The carcinogen call [1] was “negative (inactive)”, the carcinogen call [2] was “negative (inactive)” and the TD50 [3] was 8830 mg/kg/day.
`CCCCCCCCCCCCCCCC(=O)CC(=O)CCCCCCCCCCCCCCC` was tested, and the carcinogen call (rat, strain F344/DuCrj, females, in feed, site: colon, lesion: one or several types, types not named, dosed 54 weeks, study length 54 weeks) was “negative (inactive)” and the carcinogen call (rat, strain F344/DuCrj, females, in feed, site: mammary gland, lesion: one or several types, types not named, dosed 54 weeks, study length 54 weeks) was “negative (inactive)”.
`COc1ccc(O)cc1` was tested, and the TD50 (rat, strain F344/DuCrj, females, in feed, site: forestomach, lesion: squamous-cell carcinoma, dosed 104 weeks, study length 104 weeks) was 3070 mg/kg/day, the TD50 (rat, strain F344/DuCrj, females, in feed, site: forestomach, lesion: squamous-cell papilloma, dosed 104 weeks, study length 104 weeks) was 2580 mg/kg/day and the carcinogen call (rat, strain F344/DuCrj, males, in feed, site: forestomach, lesion: one or several types, types not named, dosed 51 weeks, study length 52 weeks) was “negative (inactive)”. It also gave a TD50 (rat, strain F344/DuCrj, males, in feed, site: forestomach, lesion: papilloma, dosed 51 weeks, study length 52 weeks) of 1460 mg/kg/day, a TD50 (rat, strain F344/DuCrj, males, in feed, site: forestomach, lesion: squamous-cell carcinoma, dosed 104 weeks, study length 104 weeks) of 377 mg/kg/day and a TD50 (rat, strain F344/DuCrj, males, in feed, site: forestomach, lesion: squamous-cell papilloma, dosed 104 weeks, study length 104 weeks) of 832 mg/kg/day. The TD50 (rat, strain F344/DuCrj, males, in feed, site: stomach, glandular, lesion: adenoma, dosed 104 weeks, study length 104 weeks) was 16200 mg/kg/day and the carcinogen call (rat, strain F344/DuCrj, males, in feed, site: stomach, glandular, lesion: one or several types, types not named, dosed 51 weeks, study length 52 weeks) was “negative (inactive)”.
Work on `[O-][Cl+]O` yielded a TD50 (mouse, strain B6C3F1, females, in drinking water, site: liver, lesion: several types, types named in the paper, dosed 85 weeks, study length 85 weeks) of 3060 mg/kg/day, a TD50 (mouse, strain B6C3F1, males, in drinking water, site: any site (literature study), lesion: several types, types named in the paper, dosed 85 weeks, study length 85 weeks) of 169 mg/kg/day and a TD50 (mouse, strain B6C3F1, males, in drinking water, site: liver, lesion: hyperplastic nodule, dosed 85 weeks, study length 85 weeks) of 146 mg/kg/day. It also gave a TD50 (mouse, strain B6C3F1, males, in drinking water, site: liver, lesion: several types, types named in the paper, dosed 85 weeks, study length 85 weeks) of 110 mg/kg/day, a TD50 (mouse, strain B6C3F1, males, in drinking water, site: lung, lesion: adenoma, dosed 85 weeks, study length 85 weeks) of 346 mg/kg/day and a TD50 (mouse, strain B6C3F1, males, in drinking water, site: lung, lesion: several types, types named in the paper, dosed 85 weeks, study length 85 weeks) of 237 mg/kg/day. For the same molecule, the carcinogen call (rat, strain Fischer 344, females, in drinking water, site: any site (literature study), lesion: several types, types named in the paper, dosed 85 weeks, study length 85 weeks) was “negative (inactive)” and the carcinogen call (rat, strain Fischer 344, males, in drinking water, site: any site (literature study), lesion: several types, types named in the paper, dosed 85 weeks, study length 85 weeks) was “negative (inactive)”.
For `Cc1c(N(C)C)c(=O)n(-c2ccccc2)n1C`, the carcinogen call (mouse, strain B6C3F1, females, in drinking water, site: any site (literature study), lesion: one or several types, types not named, dosed 100 weeks, study length 104 weeks) was “negative (inactive)”, the TD50 (mouse, strain B6C3F1, females, in drinking water, site: liver, lesion: hepatocellular adenoma, dosed 100 weeks, study length 104 weeks) was 6150 mg/kg/day (inactive) and the carcinogen call (mouse, strain B6C3F1, females, in drinking water, site: liver, lesion: hepatocellular carcinoma, dosed 100 weeks, study length 104 weeks) was “negative (inactive)”. The carcinogen call (mouse, strain B6C3F1, females, in drinking water, site: lung, lesion: alveolar/bronchiolar adenoma, dosed 100 weeks, study length 104 weeks) was “negative (inactive)”, the TD50 (mouse, strain B6C3F1, females, in drinking water, site: lung, lesion: alveolar/bronchiolar carcinoma, dosed 100 weeks, study length 104 weeks) was 6540 mg/kg/day (inactive) and the TD50 (mouse, strain B6C3F1, males, in drinking water, site: any site (literature study), lesion: one or several types, types not named, dosed 100 weeks, study length 104 weeks) was 156 mg/kg/day (inactive). For the same molecule, the TD50 (mouse, strain B6C3F1, males, in drinking water, site: liver, lesion: hepatocellular adenoma, dosed 100 weeks, study length 104 weeks) was 683 mg/kg/day (inactive), the TD50 (mouse, strain B6C3F1, males, in drinking water, site: liver, lesion: hepatocellular carcinoma, dosed 100 weeks, study length 104 weeks) was 5390 mg/kg/day (inactive) and the TD50 (mouse, strain B6C3F1, males, in drinking water, site: lung, lesion: alveolar/bronchiolar adenoma, dosed 100 weeks, study length 104 weeks) was 1480 mg/kg/day (inactive). For the same molecule, the carcinogen call (mouse, strain B6C3F1, males, in drinking water, site: lung, lesion: alveolar/bronchiolar carcinoma, dosed 100 weeks, study length 104 weeks) was “negative (inactive)”.
